{"source": "patent US20090175882A1", "about": "“METHODS AND COMPOSITIONS FOR TREATING HYPERALGESIA” (IRM LLC, priority 2006, published 2009)", "key": {"[1]": {"molecular_target": "T1, mouse TRPA1 (Mus musculus, UniProt Q8BLA8)", "T1 construct": "expressed in transfected cells; host or cells: CHO cells (tetracycline-induced for PatchXpress; mTRPA1-pcDNA5 named for the transient labelling experiment)", "T1 sequence (Q8BLA8 whole entry)": "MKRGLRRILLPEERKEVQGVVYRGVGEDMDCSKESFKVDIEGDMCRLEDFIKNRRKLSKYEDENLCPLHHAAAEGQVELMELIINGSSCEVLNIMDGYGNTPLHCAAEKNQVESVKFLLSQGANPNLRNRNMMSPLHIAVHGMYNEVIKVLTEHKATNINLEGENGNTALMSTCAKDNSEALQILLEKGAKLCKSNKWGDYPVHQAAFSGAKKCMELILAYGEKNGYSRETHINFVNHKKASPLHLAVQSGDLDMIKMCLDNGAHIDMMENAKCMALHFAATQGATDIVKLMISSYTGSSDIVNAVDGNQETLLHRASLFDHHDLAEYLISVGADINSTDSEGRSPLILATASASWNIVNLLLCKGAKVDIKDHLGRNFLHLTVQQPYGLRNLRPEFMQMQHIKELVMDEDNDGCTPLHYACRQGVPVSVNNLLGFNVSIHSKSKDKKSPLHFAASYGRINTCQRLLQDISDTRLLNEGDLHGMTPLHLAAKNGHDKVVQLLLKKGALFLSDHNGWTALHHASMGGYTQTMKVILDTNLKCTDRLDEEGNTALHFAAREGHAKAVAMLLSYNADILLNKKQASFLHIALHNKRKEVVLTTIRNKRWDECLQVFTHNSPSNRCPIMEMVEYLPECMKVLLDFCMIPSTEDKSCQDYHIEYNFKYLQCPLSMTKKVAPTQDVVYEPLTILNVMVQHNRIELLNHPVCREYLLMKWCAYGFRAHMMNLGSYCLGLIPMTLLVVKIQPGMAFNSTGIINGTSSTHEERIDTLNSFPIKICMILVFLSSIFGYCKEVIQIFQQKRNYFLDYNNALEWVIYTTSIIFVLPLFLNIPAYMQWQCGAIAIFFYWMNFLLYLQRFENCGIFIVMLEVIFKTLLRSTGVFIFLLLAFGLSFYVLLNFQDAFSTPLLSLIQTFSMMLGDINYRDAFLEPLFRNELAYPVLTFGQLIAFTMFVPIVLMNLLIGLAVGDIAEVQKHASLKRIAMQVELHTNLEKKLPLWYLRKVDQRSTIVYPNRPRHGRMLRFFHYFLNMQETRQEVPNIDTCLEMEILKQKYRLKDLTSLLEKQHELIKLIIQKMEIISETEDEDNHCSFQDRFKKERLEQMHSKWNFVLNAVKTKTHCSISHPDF", "test": "FLIPR calcium-influx assay, block of cinnamaldehyde activation, CHO cells", "type": "cell-based"}, "[2]": {"molecular_target": "T1, mouse TRPA1", "test": "Whole-cell electrophysiology of TRPA1-expressing CHO cells (pressure, hyperosmolarity, cold)", "type": "cell-based", "conditions": "for block of TRPA1 currents in response to hyperosmolarity: bath application, 2 min stimulus", "source_text": "We tested if TRPA1 is activated by mechanical forces. The electrophysiological behavior of thermoTRP-expressing Chinese Hamster Ovary (CHO) cells was investigated with two different assays of mechanical stress—pressure application using the recording pipette and changes in external osmolarity.\n(§1) Mechanosensory neurons are often classified as high- or low-threshold, characterizing responses to pain and touch, respectively. We tested the mechanical threshold of TRPA1 by applying a wide range of negative pipette pressures (FIG. 1C). TRPA1-expressing CHO cells are activated at −90 mmHg or higher, consistent with native high-threshold mechanical receptors involved in sensing pain (Cho et al., J Neurosci 22:1238, 2002). […] Gadolinium (Gd^3+) is considered a blocker of native mechanically-gated ion channels in animal tissues (Martinac et al., Physiol Rev 81:685, 2001). […] FM1-43 is a styryl dye that specifically labels sensory cells by entering through open transduction channels. […] Furthermore, it was observed that 10 μM of FM1 -43 was able to block cinnamaldehyde-induced currents in TRPA1-expressing CHO cells (n=8).\n(§2) To ensure that the mechanical response we observe is not an artifact of heterologous expression system, we tested if native TRPA1-expressing neurons also respond to such stimuli. 5/6 cinnamaldehyde-sensitive (presumptive TRPA1-expressing) DRG neurons responded to an application of −200 mmHg of suction, while 0/21 cinnamaldehyde insensitive neurons responded (16 of 21 were capsaicin-sensitive) (FIG. 2B). Millimolar camphor was recently reported to inhibit basal currents and cold or agonist-activation of TRPA1.\nMammalian cell electrophysiology: ThermoTRP-expressing CHO cells (rat TRPV1, rat TRPV2, mouse TRPV3, rat TRPV4, mouse TRPM8, and mouse TRPA1), control CHO cells, and cultured rat DRG neurons were prepared as described in Story et al., Cell 112:819, 2003; and Bandell et al., Neuron 41:849, 2004. Electrophysiological recordings were performed as described in Bandell et al., Neuron 41:849, 2004. Briefly, CHO cells were clamped at −60 mV and 0.8 second ramps from −80 mV to +80 mV were run every 4 seconds. Currents from DRG neurons were recorded at −60 mV and for their current-voltage curve, 300 ms voltage step at +20 mV was used 40 ms before 800 ms ramp from -80 mV to +80 mV to minimize contamination of voltage gated Na^+ or Ca^2+ current. The pipette solution for temperature and hyperosmotic experiments consisted of (in mM) 140 CsCl, 5 EGTA, 10 HEPES, 2 MgATP, 0.2 NaGTP, titrated to pH 7.4 with CsOH. The base external solution for these experiments consisted of (in mM) 140 NaCl, 5KCl, 10 HEPES, 2CaCl2, 1MgCl2, titrated to pH 7.4 with NaOH. Mannitol was used to adjust osmolarity for hypertonic solutions. For mouse TRPV3 and rat TRPV2, external calcium was replaced with 5 mM EGTA. Gluconate was substituted for chloride in (±)-pressure and hypotonic experiments to eliminate the potential for endogenous swelling-activated chloride currents. For these experiments, pipette solution (295 mOsm) consisted of (in mM) 125 Cs-gluconate, 15CsCl, 5 EGTA, 10 HEPES, 2 MgATP, 0.2NaGTP, titrated to pH 7.4 with CsOH. The external solution consisted of (in mM) 90 Na-gluconate, 10 NaCl, 5 K-gluconate, 10 HEPES, 2 CaCl2, 1 MgCl2, titrated to pH 7.4 with NaOH. Osmolarity was adjusted with mannitol to 220 mOsm (hypotonic) or 298 mOsm 15 (isotonic). (±)-Pressure was hydrostatically delivered by the recording pipette using syringe pumping (Hamill et al., Annu Rev Physiol 59:621, 1997) and monitored through Pressure Monitor (World Precision Instruments). Warner temperature controller (TC-324B and CL-100) was used for the heating or cooling the perfused bath solutions. […] The number of cells (n) tested with -100 mmHg to −300 mmHg, ˜+100 mmHg, 450 mOsm, and 220 mOsm for each cell type, respectively, are: CHO cells, n=7, 14, 5, 12; TRPV1, n=6, 5, 7, 5; TRPV2, n=4, 5, 3, 5; TRPV3, n=3, 2, 3, 0; TRPM8, n=12, 4, 10, 0. […]"}, "[3]": {"molecular_target": "T2, TRPA1 (Homo sapiens, UniProt O75762)", "test": "PatchXpress whole cell patch clamp, cinnamaldehyde-elicited current, CHO cells", "type": "cell-based", "design": "expressed in transfected cells; host or cells: CHO cell line", "conditions": "10 μM FM1-43 with 100 μM cinnamaldehyde, −80 mV", "procedure": "(§3) FM1-43 experiments: The FM1-43 labeling of CHO cells transfected with mTRPA1 was performed as described (Meyers et al., J Neurosci 23:4054, 2003). Briefly, CHO cells were transfected using Fugene (Roche) with mTRPA1-pcDNA5. For mock transfection CHO cells were treated with Fugene, but without any plasmid DNA. 24 hrs after transfection the cells were incubated for 5 min with 200 μM cinnamaldehyde in physiological buffer (consisted of (in mM) 130 NaCl, 3 KCl, 2 MgCl2, 2 CaCl2, 10 HEPES, 10 glucose) at room temperature, followed by 3 min with 10 μM of FM1-43. The cells were then washed thoroughly and imaged. mTRPA1 and hTRPA1-expressing CHO cells were tested in whole cell patch clamp configuration using the PatchXpress (Axon Instruments) for the effect of the FM143 dye on TRPA1 activation. Cells were plated the day before testing and induced with 0.5 μg/ml tetracycline as previously described in Story et al., Cell 112:819, 2003. Immediately prior to testing, cells were trypsinized and resuspended in calcium-free DMEM media (Invitrogen). Recordings were performed in extracellular solution containing (in mM) 2.67 KCl, 1.47 KH2PO4, 0.5 MgCl2, 138 NaCl, 8 Na2HPO4, 5.6 glucose. The intracellular solution contained (in mM) 140 KCl, 10 HEPES, 20 glucose, 10 HEDTA and 1 μM buffered free Calcium. Holding currents at −80 mV were used for quantitative analysis of TRPA1 activation and inhibition. […]"}, "[4]": {"molecular_target": "T3, mTRPA1 (Mus musculus, UniProt Q8BLA8)", "T3 construct": "expressed in transfected cells; host or cells: CHO cells (tetracycline-induced for PatchXpress; mTRPA1-pcDNA5 named for the transient labelling experiment)", "T3 sequence (Q8BLA8 whole entry)": "as above", "test": "PatchXpress whole cell patch clamp, cinnamaldehyde-elicited current, CHO cells", "type": "cell-based", "source_text": "as §1\nas §3, with “Recordings were performed in extracellular solution containing (in mM) 2.67 KCl, 1.47 KH2PO4, 0.5 MgCl2, 138 NaCl, 8 Na2HPO4, 5.6 glucose. The intracellular solution contained (in mM) 140 KCl, 10 HEPES, 20 glucose, 10 HEDTA and 1 μM buffered free Calcium.” left out"}, "[5]": {"molecular_target": "T2, TRPA1", "test": "TRPA1 block, test not specified", "conditions": "summary statement"}, "[6]": {"test_system": "BK-induced nociceptive mechanical behaviours", "test": "Bradykinin-induced mechanical hyperalgesia (Von Frey threshold)", "type": "in vivo", "conditions": "short term hyperalgesia model, 1 mM coinjected, mice"}, "[7]": {"test_system": "CFA-induced mechanical hyperalgesia", "test": "CFA-induced mechanical hyperalgesia (Von Frey threshold)", "type": "in vivo", "conditions": "injected into hindpaw 24 hours after CFA, mice"}, "[8]": {"test_system": "bradykinin (BK)-induced heat hyperalgesia", "test": "Bradykinin-induced heat hyperalgesia", "type": "in vivo", "conditions": "mice"}, "[9]": {"test_system": "CFA-induced heat hyperalgesia", "test": "CFA-induced heat hyperalgesia", "type": "in vivo", "conditions": "mice"}, "[10]": {"test_system": "TRPV1, TRPV2, TRPV3, TRPV4, or TRPM8", "test": "Effect on other thermoTRPs (summary statement)", "type": "cell-based", "source_text": "TRPA1 inhibitors that can be employed in the practice of the present invention include compounds that interferes with the expression, modification, regulation or activation of TRPA1, or compounds that down-regulates one or more of the normal biological activities of TRPA1 (e.g., its ion channel). […] Various TRPA1-specific antagonists can be used in the instant invention. Some of these TRPA1-specific inhibitors are identified by the present inventors, as described in the Examples below. These compounds can be obtained commercially or are otherwise described in the art. One such compound is Compound 18, (Z)-4-(4-chlorophynyl)-3-methylbut-3-en-2-oxime. This compound can be obtained commercially from Maybridge (Cornwall, UK). Another example is Compound 40, N,N′-Bis-(2-hydroxybenzyl)-2,5-diamino-2,5-dimethylhexane, which has been described in U.S. Pat. No. 4,129,556. […] Thus, these two compounds can be readily used to treat or alleviate mechanical hyperalgesia as described in more detail below."}, "[11]": {"test_system": "cultured rat DRG neurons", "test": "Current response of cultured DRG neurons to negative pressure", "type": "cell-based", "conditions": "2 mM camphor, −150 mmHg", "source_text": "as §2\nMammalian cell electrophysiology: ThermoTRP-expressing CHO cells (rat TRPV1, rat TRPV2, mouse TRPV3, rat TRPV4, mouse TRPM8, and mouse TRPA1), control CHO cells, and cultured rat DRG neurons were prepared as described in Story et al., Cell 112:819, 2003; and Bandell et al., Neuron 41:849, 2004. Electrophysiological recordings were performed as described in Bandell et al., Neuron 41:849, 2004. […] Currents from DRG neurons were recorded at −60 mV and for their current-voltage curve, 300 ms voltage step at +20 mV was used 40 ms before 800 ms ramp from -80 mV to +80 mV to minimize contamination of voltage gated Na^+ or Ca^2+ current. […] (±)-Pressure was hydrostatically delivered by the recording pipette using syringe pumping (Hamill et al., Annu Rev Physiol 59:621, 1997) and monitored through Pressure Monitor (World Precision Instruments). […]"}}, "note": "“Also recorded” adds a separate entry of the source.", "data": [{"smiles": "O=CC=Cc1ccccc1", "note": "[cinnamaldehyde]", "values": [{"measurement": "EC50", "setting": "[1]; control (no compound 18)", "value": 50, "unit": "µM"}, {"measurement": "EC50", "setting": "[1]; with 25 μM compound 18", "value": 220, "unit": "µM"}]}, {"smiles": "[Gd+3]", "note": "[Gd3+, Gadolinium]", "values": [{"measurement": "block of TRPA1 currents in response to negative pressure", "setting": "[2]; 10 μM Gd3+, -100 mmHg", "value": "completely and reversibly blocked"}, {"measurement": "block of TRPA1 currents in response to hyperosmolarity", "setting": "[2]; 10 μM Gd3+, 450 mOsm", "value": "completely blocks"}, {"measurement": "block of TRPA1 currents in response to hyperosmolarity", "setting": "[2]; 10 μM Gd3+, 450 mOsm, listed as Gd^3+", "value": "completely and reversibly blocked"}]}, {"smiles": "N.N.N.N.N.N.N.N.N.N.N.N.N.N.[Cl-].[Cl-].[Cl-].[Cl-].[Cl-].[Cl-].[O-2].[O-2].[Ru+3].[Ru+3].[Ru+4]", "note": "[ruthenium red]", "values": [{"measurement": "block of mechanosensitive TRPA1 currents upon hyperosmolarity", "setting": "[2]; 5 μM ruthenium red, 450 mOsm", "value": "completely blocked"}, {"measurement": "block of mechanosensitive TRPA1 currents upon (−) pressure", "setting": "[2]; 5 μM ruthenium red, -100 mmHg", "value": "completely blocked"}]}, {"smiles": "CCCCN(CCCC)c1ccc(/C=C/c2cc[n+](CCC[N+](CC)(CC)CC)cc2)cc1.[Br-].[Br-]", "note": "[FM1-43]", "values": [{"measurement": "cells in which an inhibition of the current was observed", "setting": "[3]", "value": "3/4"}, {"measurement": "block of cinnamaldehyde-induced currents in TRPA1-expressing CHO cells", "setting": "[4]; 10 μM FM1-43", "value": "able to block"}, {"measurement": "cells in which an inhibition of the current was observed", "setting": "[4]; 10 μM FM1-43 with 100 μM cinnamaldehyde, −80 mV", "value": "7/8"}, {"measurement": "block in current, on average", "setting": "[4]; 10 μM FM1-43 with 100 μM cinnamaldehyde, average stated for mTRPA1 and hTRPA1 cells together", "value": 50, "unit": "%"}]}, {"smiles": "CC(C)(CCC(C)(C)NCc1ccccc1O)NCc1ccccc1O", "note": "[Compound 40, N,N′-Bis-(2-hydroxybenzyl)-2,5-diamino-2,5-dimethylhexane]", "values": [{"measurement": "inhibition of TRPA1 activation or function", "setting": "[5]", "value": "specifically inhibit TRPA1 activation or function; also recorded: blocks TRPA1"}, {"measurement": "BK-induced mechanical nociceptive behavior", "setting": "[6]", "value": "very similar results"}, {"measurement": "CFA-induced mechanical hyperalgesia", "setting": "[7]", "value": "very similar results"}, {"measurement": "BK-induced heat hyperalgesia", "setting": "[8]", "value": "very similar results"}, {"measurement": "CFA-induced heat hyperalgesia", "setting": "[9]", "value": "very similar results"}, {"measurement": "effect on activation or activities of the other thermoTRPs", "setting": "[10]", "value": "little or no effect"}]}, {"smiles": "CC12CCC(CC1=O)C2(C)C", "note": "(stereo not shown) [camphor]", "values": [{"measurement": "block of current response of DRG neurons to (−) pressure", "setting": "[11]", "value": "completely blocks; also recorded: fully inhibited"}, {"measurement": "block of current activation of TRPA1 upon (−) pressure in CHO cells", "setting": "[2]; 2 mM camphor, −100 mmHg", "value": "completely block"}]}]}
